Test results from ChEMBL document CHEMBL2331218, “Synthesis, biological evaluation, 3D-QSAR studies of novel aryl-2H-pyrazole derivatives as telomerase inhibitors” (Bioorg Med Chem Lett, 2013).

How the values were obtained:
B16-F10 = assay: Anticancer activity against mouse B16F10 cells assessed as cell survival measured after 48 hrs by MTT assay; type: functional, cell-based; settings: B16-F10, 48 h
SGC-7901 = assay: Anticancer activity against human SGC7901 cells assessed as cell survival measured after 48 hrs by MTT assay; type: functional, cell-based; settings: SGC-7901, 48 h
[1] = biological target: Telomerase reverse transcriptase (Homo sapiens, UniProt O14746); assay: Inhibition of telomerase in human SGC7901 cells by TRAP assay; type: cell-based, SGC-7901
Sequence of Telomerase reverse transcriptase (O14746 whole entry): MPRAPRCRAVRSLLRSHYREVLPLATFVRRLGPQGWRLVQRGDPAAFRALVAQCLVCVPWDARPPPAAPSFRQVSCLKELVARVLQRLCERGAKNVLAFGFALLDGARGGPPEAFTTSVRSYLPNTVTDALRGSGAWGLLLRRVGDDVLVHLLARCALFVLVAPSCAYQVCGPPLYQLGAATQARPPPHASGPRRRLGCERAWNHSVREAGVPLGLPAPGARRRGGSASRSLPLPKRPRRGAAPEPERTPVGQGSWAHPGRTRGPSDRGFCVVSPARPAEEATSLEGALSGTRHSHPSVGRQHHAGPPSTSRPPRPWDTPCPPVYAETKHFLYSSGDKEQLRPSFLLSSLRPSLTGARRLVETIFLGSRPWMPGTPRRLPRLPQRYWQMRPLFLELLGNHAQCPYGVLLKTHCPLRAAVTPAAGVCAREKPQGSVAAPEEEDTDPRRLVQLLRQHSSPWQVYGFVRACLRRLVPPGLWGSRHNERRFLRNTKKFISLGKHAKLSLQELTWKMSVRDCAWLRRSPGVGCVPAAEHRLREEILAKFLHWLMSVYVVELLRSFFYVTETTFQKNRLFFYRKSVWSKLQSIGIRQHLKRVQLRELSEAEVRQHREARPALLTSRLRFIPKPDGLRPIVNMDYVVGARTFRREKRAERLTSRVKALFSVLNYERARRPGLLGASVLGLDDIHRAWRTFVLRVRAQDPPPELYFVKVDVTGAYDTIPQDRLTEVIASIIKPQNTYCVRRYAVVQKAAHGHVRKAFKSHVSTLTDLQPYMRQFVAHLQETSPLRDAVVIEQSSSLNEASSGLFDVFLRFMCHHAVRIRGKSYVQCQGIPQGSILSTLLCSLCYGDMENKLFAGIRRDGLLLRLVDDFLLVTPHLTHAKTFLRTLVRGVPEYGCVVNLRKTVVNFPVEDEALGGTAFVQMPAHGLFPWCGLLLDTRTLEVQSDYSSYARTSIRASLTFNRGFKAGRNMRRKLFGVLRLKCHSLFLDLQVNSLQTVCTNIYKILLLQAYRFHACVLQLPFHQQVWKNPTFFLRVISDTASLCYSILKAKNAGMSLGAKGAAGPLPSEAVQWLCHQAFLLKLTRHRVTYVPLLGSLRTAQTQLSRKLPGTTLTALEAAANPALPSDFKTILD

| SMILES | IC50 (B16-F10) | IC50 (SGC-7901) | IC50 [1] |
| --- | --- | --- | --- |
| CC(=O)N1N=C(c2ccc(C)cc2)CC1c1ccc2c(c1)OCCO2 (stereo not given) | 37.9 µM | 49.2 µM | 13.4 µM |
| CC(=O)N1N=C(c2ccc(Cl)cc2)CC1c1ccc2c(c1)OCCCO2 (stereo not given) | – | – | 82.6 µM |
| CC(=O)N1N=C(c2ccccc2)CC1c1ccc2c(c1)OCCCO2 (stereo not given) | – | – | 68.3 µM |
| CC(=O)N1N=C(c2ccc(Cl)cc2)CC1c1ccc2c(c1)OCCO2 (stereo not given) | 47.3 µM | 59.5 µM | 23.8 µM |
| CC(=O)N1N=C(c2ccc([N+](=O)[O-])cc2)CC1c1ccc2c(c1)OCO2 (stereo not given) | 24.7 µM | 41.9 µM | 8.7 µM |
| CC(=O)N1N=C(c2ccccc2)CC1c1ccc2c(c1)OCCO2 (stereo not given) | 39.5 µM | 50.2 µM | 18.5 µM |
| COc1ccc(C2=NN(C(C)=O)C(c3ccc4c(c3)OCO4)C2)cc1 (stereo not given) | 5.34 µM | 18.1 µM | 0.9 µM |
| CC(=O)N1N=C(c2ccc(Br)cc2)CC1c1ccc2c(c1)OCO2 (stereo not given) | 18.9 µM | 30.1 µM | 6.2 µM |
| O=c1[nH]cc(F)c(=O)[nH]1 [FLUOROURACIL] | 21.4 µM | 46.4 µM | – |
| CC(=O)N1N=C(c2ccc(Cl)cc2)CC1c1ccc2c(c1)OCO2 (stereo not given) | 20.8 µM | 35.3 µM | 6.7 µM |
| CC(=O)N1N=C(c2ccc([N+](=O)[O-])cc2)CC1c1ccc2c(c1)OCCCO2 (stereo not given) | – | – | 93.2 µM |
| COc1ccc(C2=NN(C(C)=O)C(c3ccc4c(c3)OCCO4)C2)cc1 (stereo not given) | 31.7 µM | 45.8 µM | 10.6 µM |
| CC(=O)N1N=C(c2ccc(F)cc2)CC1c1ccc2c(c1)OCCCO2 (stereo not given) | – | – | 83.6 µM |
| CC(=O)N1N=C(c2ccc(C)cc2)CC1c1ccc2c(c1)OCO2 (stereo not given) | 12.8 µM | 21.2 µM | 1.3 µM |
| CC(=O)N1N=C(c2ccc(Br)cc2)CC1c1ccc2c(c1)OCCCO2 (stereo not given) | 97 µM | – | 76.4 µM |
| COc1ccc(C2=NN(C(C)=O)C(c3ccc4c(c3)OCCCO4)C2)cc1 (stereo not given) | 85.3 µM | 94 µM | 46.7 µM |
| CC(=O)N1N=C(c2ccc(F)cc2)CC1c1ccc2c(c1)OCCO2 (stereo not given) | 53.1 µM | 68.4 µM | 25.7 µM |
| CC(=O)N1N=C(c2ccc([N+](=O)[O-])cc2)CC1c1ccc2c(c1)OCCO2 (stereo not given) | 57.8 µM | 70 µM | 37.4 µM |
| CC(=O)N1N=C(c2ccc(F)cc2)CC1c1ccc2c(c1)OCO2 (stereo not given) | 22.2 µM | 40.9 µM | 7.3 µM |
| CC(=O)N1N=C(c2ccc(C)cc2)CC1c1ccc2c(c1)OCCCO2 (stereo not given) | 89.7 µM | – | 54.9 µM |
| CC(=O)N1N=C(c2ccc(Br)cc2)CC1c1ccc2c(c1)OCCO2 (stereo not given) | 44.1 µM | 52.3 µM | 22.9 µM |
| CC(=O)N1N=C(c2ccccc2)CC1c1ccc2c(c1)OCO2 (stereo not given) | 14 µM | 25.7 µM | 3.4 µM |
